Laboratory results reported in US20030104473A1, “Common ligand mimics: benzimidazoles” (priority 2001, published 2003).
Where two headings read alike, the source gives them in different places.

Assays:
[1] = molecular target: dihydrodipicolinate reductase (DHPR) (Escherichia coli, UniProt P04036); test: DHPR kinetic assay, spectrophotometric oxidation of NADPH at 340 nm; assay type: biochemical
Procedure: For DHPR analysis, the compounds were screened using a kinetic protocol that spectrophotometrically evaluates oxidation of NADPH.
Stock solutions of each of the reagents were prepared in the following concentrations. Dilutions of the stock solutions were prepared prior to running the assay in the concentrations indicated below. DHPR was diluted in 10 mM HEPES at a pH of 7.4. DHPS (dihydrodipicolinate synthase) was not diluted and was stored in eppindorf tubes.
The L-ASA (L-aspartate semialdehyde) solution was prepared in the following manner. […] stock solution of ASA was prepared. 100 μl of the ASA stock solution was mixed with 150 μl of concentrated NaHCO3 and 375 μl of H2O. For use in the assay, 28.8 mM L-ASA was equal to 625 μl of the solution. The L-ASA stock Aft solution was kept at a temperature of −20° C. After dilution, the pH of the 28.8 mM solution was checked and maintained between 1 and 2.
The DHPS reaction was monitored at 340 nm prior to and after addition of the inhibitor to detect background reaction with the inhibitor. The solution for background detection was a 945 μl solution containing 0.1 HEPES (pH 7.8), 1 mM pyruvate, 6 μM NADPH, 40 μM L-ASA, and 7 μl of 1 mg/ml DHPS at 25° C. in the volumes provided above. The sample solution was then mixed and incubated for 10 minutes. Next, 500 nM solutions of the inhibitors and enough DMSO to provide a final DMSO concentration of 5% of the total assay volume were added. The solution was mixed and incubated for an additional 6 minutes.
In DHPR samples, 5 μl of the diluted DHPR enzyme were added. The sample was mixed for 20 seconds and then the reaction was run for 10 minutes. After a 50 second lag, the samples were read in a Cary spectrophotometer at 340 nm. Reading of the samples was continued until 300 seconds. Cuvette #1 contained the control reaction (no inhibitor), and cuvette #2 contained the positive control reaction in which Cibacron Blue at 2.58 μM was substituted for inhibitor to yield 70 to 80% inhibition. The substrate was kept at a level at least 10 times the Km. The final concentration of L-ASA was about 1 mM.

[2] = molecular target: 1-deoxy-D-xylulose-5-phosphate reductase (DOXPR) (Escherichia coli, UniProt P45568); test: DOXPR kinetic assay, spectrophotometric oxidation of NADPH at 340 nm; assay type: biochemical
1-deoxy-D-xylulose-5-phosphate reductase (DOXPR), sequence (P45568 whole entry): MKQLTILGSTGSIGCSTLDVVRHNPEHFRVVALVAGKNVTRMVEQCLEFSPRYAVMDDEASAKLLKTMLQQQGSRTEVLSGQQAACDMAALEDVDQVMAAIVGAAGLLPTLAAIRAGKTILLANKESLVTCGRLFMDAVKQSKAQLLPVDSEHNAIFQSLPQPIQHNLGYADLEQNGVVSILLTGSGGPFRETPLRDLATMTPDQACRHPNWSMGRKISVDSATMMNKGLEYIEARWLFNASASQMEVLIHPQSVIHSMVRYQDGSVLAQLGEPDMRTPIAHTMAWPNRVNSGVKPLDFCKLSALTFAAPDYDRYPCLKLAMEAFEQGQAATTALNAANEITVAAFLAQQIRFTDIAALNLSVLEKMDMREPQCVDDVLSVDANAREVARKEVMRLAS
Procedure: For DOXPR analysis, the compounds were screened using a kinetic protocol that spectrophotometrically evaluates oxidation of NADPH.
Stock solutions of each of the reagents were prepared in the following concentrations. Dilutions of the stock solutions were prepared prior to running the assay in the concentrations indicated below. DOXPR was diluted in 10 mM HEPES at a pH of 7.4.
The DOXPR reaction was monitored at 340 nm prior to and after addition of the inhibitor to detect background reaction with the inhibitor. Solutions of the inhibitors in DMSO were prepared to provide a final DMSO concentration of 5% of the total assay volume. These solutions were incubated for 6 minutes at 25° C. in a 990 μl of a solution containing 0.1 M HEPES, pH 7.4, 1 mM MnCl21.15 mM DOXP, and 8 μM NADPH. The oxidation reaction was then initiated with 10 μl of DOXP reductoisomerase (10 μg/ml). After the enzyme was added, the solution was mixed for 20 seconds, and the reaction was run for 10 minutes. After a 50 second lag, the samples were read in a Cary spectrophotometer at 340 nm. Reading of the samples was continued until 300 seconds. Cuvette #1 contained the control reaction (no inhibitor), and cuvette #2 contained the positive control reaction in which Cibacron Blue at 10.32 μM was substituted for inhibitor to yield 70 to 80% inhibition. The substrate was kept at a level at least 10 times the Km.

[3] = molecular target: glyceraldehyde-3-phosphate dehydrogenase (GAPDH) (Escherichia coli, UniProt P0A9B2); test: GAPDH kinetic assay, spectrophotometric reduction of NAD+ at 340 nm; assay type: biochemical, E. coli
glyceraldehyde-3-phosphate dehydrogenase (GAPDH), sequence (P0A9B2 whole entry): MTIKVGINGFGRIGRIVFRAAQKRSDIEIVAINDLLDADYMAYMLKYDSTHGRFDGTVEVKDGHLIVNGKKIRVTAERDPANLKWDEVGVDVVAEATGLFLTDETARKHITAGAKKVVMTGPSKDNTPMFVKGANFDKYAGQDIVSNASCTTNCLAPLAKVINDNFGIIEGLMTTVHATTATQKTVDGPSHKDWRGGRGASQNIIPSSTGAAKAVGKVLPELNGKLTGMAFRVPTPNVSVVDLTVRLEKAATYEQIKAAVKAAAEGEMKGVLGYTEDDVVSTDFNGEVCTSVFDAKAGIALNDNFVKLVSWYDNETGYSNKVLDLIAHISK
Procedure: For GAPDH analysis, the compounds were screened using a kinetic protocol that spectrophotometrically evaluates reduction of NAD+.
Stock solutions of each of the reagents were prepared in the following concentrations. Dilutions of the stock solutions were prepared prior to running the assay in the concentrations indicated below.
The GAPDH reaction was monitored at 340 nm prior to and after addition of the inhibitor to detect background reaction with the inhibitor. Solutions of 100 μl of the inhibitors incubated for 6 minutes at 25° C. in a 990 μl of a solution containing 125 mM triethanolamine, pH 7.5, 145 μM glyceraldehyde 3-phosphate (GAP), 0.211 mM NAD, 5 mM sodium arsenate, and 3 mM β-metcaptoethanol (2-BME). The reaction was then initiated with 10 gl of E. coli GAPDH (1:200 dilution of 1.0 mg/ml). After the enzyme was added, the solution was mixed for 20 seconds, and the reaction was run for 10 minutes. After a 50 second lag, the samples were read in a Cary spectrophotometer at 340 nm. Reading of the samples was continued until 300 seconds. The final concentration of DMSO in a cuvette was about 5% of the total assay volume. Cuvette #1 contained the control reaction (no inhibitor).
GAP for use in this experiment was deprotected from the diethyl acetal in the following manner. Water was boiled in recrystallizing dish. […]

dihydrodipicolinate reductase (DHPR), sequence (P04036 whole entry): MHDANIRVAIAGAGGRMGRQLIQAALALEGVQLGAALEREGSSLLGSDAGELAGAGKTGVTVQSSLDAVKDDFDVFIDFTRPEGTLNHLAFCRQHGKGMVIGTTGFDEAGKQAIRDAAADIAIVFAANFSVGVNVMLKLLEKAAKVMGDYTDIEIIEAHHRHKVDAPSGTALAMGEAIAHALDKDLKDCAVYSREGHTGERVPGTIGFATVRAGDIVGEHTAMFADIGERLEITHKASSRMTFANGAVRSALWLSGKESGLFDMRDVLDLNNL

| Compound | IC50 ([1]; Example 13 oxidoreductase panel (FIG. 7), read-out: IC50 for DHPR) [µM] | IC50 ([1]; Example 14, common ligand mimics (FIG. 8), read-out: IC50 for DHPR) [µM] | IC50 ([2]; Example 13 oxidoreductase panel (FIG. 7), read-out: IC50 for DOXPR) [µM] | IC50 ([3]; Example 13 oxidoreductase panel (FIG. 7), read-out: IC50 for GAPDH) [µM] | IC50 ([1]; IC50 for DHPR, Example 13 oxidoreductase panel (FIG. 7)) [µM] | IC50 ([1]; IC50 for DHPR, Example 14, common ligand mimics (FIG. 8)) [µM] | IC50 [2] [µM] | IC50 [3] [µM] |
| --- | --- | --- | --- | --- | --- | --- | --- | --- |
| O=C(O)c1ccc(-c2ccc(-c3nc4ccccc4[nH]3)o2)cc1 [compound 6b, 4-[5-(1H-benzoimidazol-2-yl)-furan-2-yl] benzoic acid] | > 48 | 32.6 | > 60 | > 60 | – | – | – | – |
| O=C(O)c1ccc(-c2ccc(-c3nc4cc([N+](=O)[O-])ccc4[nH]3)o2)cc1 [compound 6d, 4-[5-(5-nitro-1H-benzoimidazol-2-yl)-furan-2-yl]-benzoic acid] | – | – | – | – | > 75 | > 75 | 21.4 | > 150 |
